From patent US20260364184A1, “COMPOUND BASED ON OXOISOINDOLINYL-SUBSTITUTED TETRAHYDROPYRIMIDINE-DIONE AND USE THEREOF” (GLUETACS THERAPEUTICS (SHANGHAI) CO., LTD., priority 2023, published 2026)

Assays:
CDK4 = target: T1, CDK4 (Homo sapiens, UniProt P11802+Q96SW2); assay: Western blot degradation of CDK4; type: cell-based; conditions: MDA-MB-231 Cell; 24 hours
T1 construct: expression of target proteins in cells; endogenous in cells
Protocol: (§1) Conventional Western blot assay was performed to evaluate the effects of the compounds of the present disclosure on the expression of target proteins in cells.
(§2) (1) Cell Seeding and Protein Harvesting: The selected cells were processed according to the cell seeding procedure and protein harvesting procedure in Table II-2.
(§3) (2) To the collected supernatant, 5×SDS sample loading buffer was added, followed by denaturation at 95 °C for 5 minutes. The denatured samples were then separated by SDS-PAGE electrophoresis on a polyacrylamide gel. Proteins were transferred to a nitrocellulose membrane (0.45 μm NC membrane), blocked with blocking buffer at room temperature for 1 hour, and subjected to antibody incubation and development procedures according to the antibody manufacturer's instructions (Cell Signaling Technology).
(§4) Half-Maximal Degradation Concentration value (the drug concentration required for degrading proteins by 50%, abbreviated as DC50) reads method: comparing the grayscale values of Western blot bands from drug-treated samples with those from blank DMSO-treated controls, and identifying the drug concentration range at which the grayscale value is half that of the DMSO-treated control bands.
(§5) DC50 values can be calculated using ImageJ software to measure grayscale values of Western blot bands from drug-treated samples. The concentration-response curve is fitted to estimate the drug concentration corresponding to half the grayscale value.
(§6) Target protein remaining (%) refers to the percentage of target protein remaining in cells after treatment with protein degrader compounds.
(§7) Calculation method for target protein remaining (%): Use ImageJ software to measure grayscale values of Western blot bands from drug (protein degrader)-treated samples. The grayscale value of drug-treated bands is divided by that of internal control protein bands, and the resulting quotient is normalized to obtain the relative percentage of remaining target protein after protein degrader treatment.
(§8) Target protein degradation rate (%)=1−target protein remaining (%).

CDK6 = target: T2, CDK6 (Homo sapiens, UniProt Q00534+Q96SW2); assay: Western blot degradation of CDK6; type: cell-based; conditions: MDA-MB-231 Cell; 24 hours
T2 construct: expression of target proteins in cells; endogenous in cells
Protocol: as §1, §2, §3, §4, §5, §6, §7, §8

T2 sequence (Q00534 whole entry): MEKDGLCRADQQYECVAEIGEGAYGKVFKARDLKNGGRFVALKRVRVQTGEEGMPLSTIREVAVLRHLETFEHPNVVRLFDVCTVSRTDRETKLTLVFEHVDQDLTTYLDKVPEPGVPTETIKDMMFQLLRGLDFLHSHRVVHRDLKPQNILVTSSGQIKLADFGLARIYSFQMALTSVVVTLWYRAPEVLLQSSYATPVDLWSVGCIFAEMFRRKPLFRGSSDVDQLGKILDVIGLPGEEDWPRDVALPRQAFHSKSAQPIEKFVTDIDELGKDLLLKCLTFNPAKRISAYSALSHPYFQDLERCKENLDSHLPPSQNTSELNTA
T2 sequence (Q96SW2 whole entry): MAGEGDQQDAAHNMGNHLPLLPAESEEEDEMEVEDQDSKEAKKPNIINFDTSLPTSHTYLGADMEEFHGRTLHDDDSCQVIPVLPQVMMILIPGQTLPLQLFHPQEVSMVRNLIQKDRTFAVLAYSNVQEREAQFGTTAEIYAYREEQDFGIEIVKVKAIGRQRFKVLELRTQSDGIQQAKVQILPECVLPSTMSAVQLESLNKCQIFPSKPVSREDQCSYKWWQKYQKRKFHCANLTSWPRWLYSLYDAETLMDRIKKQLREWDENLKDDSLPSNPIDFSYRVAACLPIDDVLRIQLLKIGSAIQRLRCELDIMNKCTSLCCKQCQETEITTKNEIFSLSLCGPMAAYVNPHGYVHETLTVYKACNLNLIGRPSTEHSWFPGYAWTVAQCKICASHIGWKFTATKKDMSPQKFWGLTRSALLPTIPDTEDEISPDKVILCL
T2 sequence (Q16531 whole entry partner): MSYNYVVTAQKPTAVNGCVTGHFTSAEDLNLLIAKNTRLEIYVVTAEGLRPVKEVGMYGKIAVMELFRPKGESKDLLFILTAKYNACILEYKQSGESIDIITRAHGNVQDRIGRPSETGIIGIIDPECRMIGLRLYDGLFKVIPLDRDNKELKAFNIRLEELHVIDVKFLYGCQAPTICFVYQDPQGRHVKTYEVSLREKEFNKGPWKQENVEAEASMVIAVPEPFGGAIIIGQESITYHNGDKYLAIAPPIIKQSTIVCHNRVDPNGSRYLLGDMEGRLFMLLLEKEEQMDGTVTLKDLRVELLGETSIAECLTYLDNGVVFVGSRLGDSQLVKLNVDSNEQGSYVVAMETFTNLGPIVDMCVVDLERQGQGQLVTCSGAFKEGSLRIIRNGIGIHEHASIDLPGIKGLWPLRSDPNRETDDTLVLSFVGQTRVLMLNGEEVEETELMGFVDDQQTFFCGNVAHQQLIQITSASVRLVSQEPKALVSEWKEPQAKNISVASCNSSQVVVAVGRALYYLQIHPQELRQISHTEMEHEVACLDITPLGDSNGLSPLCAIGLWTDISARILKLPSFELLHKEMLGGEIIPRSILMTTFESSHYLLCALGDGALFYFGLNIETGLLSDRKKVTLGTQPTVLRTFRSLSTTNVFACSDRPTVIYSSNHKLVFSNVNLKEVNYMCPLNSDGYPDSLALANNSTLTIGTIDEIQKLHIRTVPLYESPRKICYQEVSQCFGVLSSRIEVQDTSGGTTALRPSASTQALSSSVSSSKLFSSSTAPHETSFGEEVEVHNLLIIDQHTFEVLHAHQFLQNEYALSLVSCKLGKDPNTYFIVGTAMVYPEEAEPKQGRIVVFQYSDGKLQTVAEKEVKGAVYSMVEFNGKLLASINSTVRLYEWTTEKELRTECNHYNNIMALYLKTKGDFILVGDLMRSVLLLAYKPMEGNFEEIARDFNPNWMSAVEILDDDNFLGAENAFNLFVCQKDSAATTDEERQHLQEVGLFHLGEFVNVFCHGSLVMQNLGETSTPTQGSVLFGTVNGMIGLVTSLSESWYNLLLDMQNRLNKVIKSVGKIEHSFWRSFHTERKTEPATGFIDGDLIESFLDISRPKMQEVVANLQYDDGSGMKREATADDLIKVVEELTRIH
T1 sequence (P11802 whole entry): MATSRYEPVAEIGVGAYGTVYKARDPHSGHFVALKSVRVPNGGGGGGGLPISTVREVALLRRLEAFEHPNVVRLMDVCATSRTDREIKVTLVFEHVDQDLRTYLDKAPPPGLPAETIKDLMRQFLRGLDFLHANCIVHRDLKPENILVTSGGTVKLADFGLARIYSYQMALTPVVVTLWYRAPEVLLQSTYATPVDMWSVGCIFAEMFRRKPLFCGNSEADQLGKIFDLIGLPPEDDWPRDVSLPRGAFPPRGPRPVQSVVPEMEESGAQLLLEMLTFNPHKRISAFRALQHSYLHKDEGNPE
T1 sequence (Q96SW2 whole entry): as the sequence (Q96SW2 whole entry) above
T1 sequence (Q16531 whole entry partner): as the sequence (Q16531 whole entry partner) above

| Degradation of substrate protein CDK6 (substrate protein remaining %) (CDK6) | SMILES | Degradation of substrate protein CDK4 (substrate protein remaining %) (CDK4) |
| --- | --- | --- |
| A (0%≤substrate protein remaining %≤80%) | CN(C)C(=O)c1cc2cnc(Nc3ccc(N4CCN(CC5CCN(c6ccc7c(c6)C(=O)N(N6CCC(=O)NC6=O)C7=O)CC5)CC4)cn3)nc2n1C1CCCC1 [GT-06337, 7-cyclopentyl-2-((5-(4-((1-(2-(2,4-dioxotetrahydropyrimidin-1(2H)-yl)-1,3-dioxoisoindolin-5-yl)piperidin-4-yl)methyl)piperazin-1-yl)pyridin-2-yl)amino)-N,N-dimethyl-7H-pyrrolo[2,3-d]pyrimidine-6-carboxamide] | B (80%<substrate protein remaining %≤100%) |
| A (0%≤substrate protein remaining %≤80%) | Cc1nc2c(F)cc(-c3nc(Nc4ccc(N5CCC(N(C)Cc6ccc7c(c6)C(=O)N(N6CCC(=O)NC6=O)C7=O)CC5)cn4)ncc3F)cc2n1C(C)C [GT-06732, 2-(2,4-dioxotetrahydropyrimidin-1(2H)-yl)-5-(((1-(6-((5-fluoro-4-(4-fluoro-1-isopropyl-2-methyl-1H-benzo[d]imidazol-6-yl)pyrimidin-2-yl)amino)pyridin-3-yl)piperidin-4-yl)(methyl)amino)methyl)isoindoline-1,3-dione] | B (80%<substrate protein remaining %≤100%) |

Second part, the compound before the results:

| SMILES | Degradation of substrate protein CDK6 (substrate protein remaining %) (CDK6) | Degradation of substrate protein CDK4 (substrate protein remaining %) (CDK4) |
| --- | --- | --- |
| CN(C)C(=O)c1cc2cnc(Nc3ccc(N4CCC(CN5CCN(c6ccc7c(c6F)C(=O)N(N6CCC(=O)NC6=O)C7=O)CC5)CC4)cn3)nc2n1C1CCCC1 [GT-05203, 7-cyclopentyl-2-((5-(4-((4-(2-(2,4-dioxotetrahydropyrimidin-1(2H)-yl)-4-fluoro-1,3-dioxoisoindolin-5-yl)piperazin-1-yl)methyl)piperidin-1-yl)pyridin-2-yl)amino)-N,N-dimethyl-7H-pyrrolo[2,3-d]pyrimidine-6-carboxamide] | A (0%≤substrate protein remaining %≤80%) | B (80%<substrate protein remaining %≤100%) |
| CN(C)C(=O)c1cc2cnc(Nc3ccc(N4CCC(CN5CC6CCC5CN6c5ccc6c(c5)C(=O)N(N5CCC(=O)NC5=O)C6=O)CC4)cn3)nc2n1C1CCCC1 (stereo not shown) [GT-05831, 7-cyclopentyl-2-((5-(4-((5-(2-(2,4-dioxotetrahydropyrimidin-1(2H)-yl)-1,3-dioxoisoindolin-5-yl)-2,5-diazabicyclo[2.2.2]octan-2-yl)methyl)piperidin-1-yl)pyridin-2-yl)amino)-N,N-dimethyl-7H-pyrrolo[2,3-d]pyrimidine-6-carboxamide] | A (0%≤substrate protein remaining %≤80%) | B (80%<substrate protein remaining %≤100%) |
| CN(C)C(=O)c1cc2cnc(Nc3ccc(N4CCN(Cc5ccc6c(c5)C(=O)N(N5CCC(=O)NC5=O)C6=O)CC4)cn3)nc2n1C1CCCC1 [GT-06336, 7-cyclopentyl-2-((5-(4-((2-(2,4-dioxotetrahydropyrimidin-1(2H)-yl)-1,3-dioxoisoindolin-5-yl)methyl)piperazin-1-yl)pyridin-2-yl)amino)-N,N-dimethyl-7H-pyrrolo[2,3-d]pyrimidine-6-carboxamide] | B (80%<substrate protein remaining %≤100%) | A (0%≤substrate protein remaining %≤80%) |
